Data: ChEMBL document CHEMBL1144941, “Synthesis of second-generation transition state analogues of human purine nucleoside phosphorylase” (J Med Chem, 2003)

Target: T1, Purine nucleoside phosphorylase (Homo sapiens) (UniProt P00491)
T1 sequence (whole entry): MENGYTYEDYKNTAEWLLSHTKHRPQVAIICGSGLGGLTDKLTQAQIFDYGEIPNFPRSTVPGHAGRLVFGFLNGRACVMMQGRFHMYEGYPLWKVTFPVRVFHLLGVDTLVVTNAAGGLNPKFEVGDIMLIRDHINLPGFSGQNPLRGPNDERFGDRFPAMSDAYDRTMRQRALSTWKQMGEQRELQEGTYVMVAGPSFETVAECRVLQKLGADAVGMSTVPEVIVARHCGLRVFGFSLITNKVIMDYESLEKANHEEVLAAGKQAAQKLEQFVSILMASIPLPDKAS
Details: Urine

- NS: No slow onset
SMILES: OC[C@H]1CN(Cc2n[nH]c3c(O)ncnc23)CC1O (stereo partly specified)
